From a melting point compilation (Tetko et al.; mined from patent text by program, amines drawn as free bases though some values may be those of a salt)

SMILES | melting point [°C]
O=C(O)CCC(=O)c1ccc(-c2ccc(Cl)c(Cl)c2)cc1 | 154 to 156
COc1cc(C=O)ccc1OCc1nc(N2CCCCC2)sc1C | 80 to 81
c1ccc2c(c1)CC(CN1CCC(c3c[nH]c4cc5c(cc34)OCO5)CC1)C2 | 187 to 188
CC(=O)c1cc2c(s1)C(C)(C)CCC2(C)C | 53 to 55
Cc1ncc(Cn2c(NC3CCN(CCNC(=O)c4cc5ccccc5n4C)CC3)nc3ccccc32)o1 | 104
N#CNC(=Nc1ccncc1)NCCSc1ccccc1 | 161 to 163
CC(C)c1csc(/C=C/c2cccc(OCCC(C)(C)C(=O)O)c2)n1 | 112 to 113
O=C1c2ccccc2S(=O)(=O)N1CCCOc1ccccc1 | 83 to 86
CSc1nc(NC2CCCCC2)c2nonc2n1 | 129 to 130
CCCOc1ccc(F)cc1C(N)=O | 114 to 116
CC(C)OC(=O)n1cc(F)c(N)nc1=O | 217 to 219
CC(C)c1nc(Cl)c([N+](=O)[O-])c(Cl)n1 | 32
COC(=O)Cn1c(C(=O)NC(N)=S)cc2cc(C)ccc21 | 222 to 224
O=C(O)c1ccc(OC(F)F)c2oc3ccc([N+](=O)[O-])cc3c12 | > 270
CC(C)c1cccc(C(C)C)c1NC(=O)CN(CC1(Nc2ccccc2)CCCCC1)C(=O)OC(C)(C)C | 125 to 127
CCOC(=O)C=Cc1cccc(N)c1 | 84 to 85
Cc1nc(N2CCN(Cc3ccc4nsnc4c3)C2=O)sc1C(=O)NCc1cccnc1 | 105 to 107
COc1cc2c(cn1)OCC21C(=O)N(CC2CCCO2)c2ccccc21 (stereo not given) | > 250
COc1cc(C=CC(=O)OC2CC3CC(OC(=O)c4cc(OC)c(OC)c(OC)c4)CC2N3C)cc(OC)c1OC (stereo not given) | 40 to 42
CCCCCCCCCC(=O)Nc1c2c(nc3ccccc13)CCCC2 | 123 to 126
c1ccc(C2CNc3c4c(nc5cccc(c35)O2)CCCC4)cc1 (stereo not given) | 194 to 195
CCOC(=O)/C=C/c1cn(-c2ccc(C(F)(F)F)cn2)nc1C1CCCCC1 | 132 to 133
Cc1c(C)c2c(c(C)c1O)SC(C)(C)O2 | 62 to 64.5
Cc1c(C(=O)Nc2ccc(N3CCC(N4CCOCC4)CC3)c(C#N)c2)cnn1CCc1ccccc1 | 195
Cn1c(-c2ccc(-c3ccncc3)cc2)cnc1[C@H](Cc1ccccn1)N(C=O)c1cc2cc(Cl)ccc2o1 | 135 to 140

SMILES | melting point [°C]
COc1ccc(-c2cc3ncc(C#N)c(Nc4ccc(Sc5nccn5C)c(Cl)c4)c3cc2OC)cc1 | 227 to 229
N#Cc1cccc(C(Cl)(Cl)Cl)c1Cl | 106 to 107
COc1ccc(C2=NC(NC(=O)Nc3ccc(C(=O)c4ccccc4)cc3)c3nnc(C)n3-c3ccccc32)cc1 (stereo not given) | 225
COCCOc1cc(NS(=O)(=O)c2ccccn2)c2[nH]c(C3=NCC(CN4CCS(=O)CC4)S3)cc2c1 (stereo not given) | 235 to 236
OC(c1ccccc1)c1ccc2c(c1)N1CCN=C1S2 (stereo not given) | 175
COc1ccc2c(c1)c(Cc1cc(=O)n(-c3cnc4ccccc4n3)[nH]1)c(C)n2C(=O)c1ccc(Cl)cc1 | 231 to 233
CNc1nc2ncnn2c(NC2CCCC2)c1-c1ccccc1 | 158 to 160
CCOC(=O)C1=C(COCCN(C)S(C)(=O)=O)NC(C)=C(C(=O)OC)C1c1ccccc1Cl (stereo not given) | 93 to 95
Nc1nc2c(Cc3ccsc3)c[nH]c2c(=O)[nH]1 | 222 to 224
NC(=O)c1nnn(Cc2ccc(Cl)c(Cl)c2)c1N | 221 to 222
CCNC(=S)c1ccc2c(c1)Nc1ccccc1S2 | 155 to 156
CC(=O)Nc1ccc(S(=O)(=O)c2ccc(Br)cc2)cc1 | 195 to 199
CCCCCCCCCCCCCCCCCCOC(=O)C(NC(C)=O)C(=O)OC (stereo not given) | 75 to 77
CC(C)(C)NC1=NCCNC(c2ccccc2)=C1 | 93 to 97
Cn1nc(C=NO)nc1NCCCOc1cccc(CN2CCCCC2)c1 | 173 to 174
COC(=O)CN(C)CC(=O)Nc1cccc2c1C(=O)c1c(NC(=O)CN(C)CC(=O)OC)cccc1C2=O | 129 to 130
O=C(c1ccc(Cl)cc1)c1cc([N+](=O)[O-])ccc1N1CCC(Cc2ccccc2)CC1 | 211
CC(C)Cc1cncc(O)n1 | 130 to 131
CCCc1nc2cc3c(cc2[nH]1)NC(=O)C3(C)C(=O)OCC (stereo not given) | 258 to 261
O=C(CNC(=O)CN1CCCC1=O)NCC(=O)Nc1ccncc1 | 250 to 253
Cc1ncoc1C(C)(O)c1ccco1 (stereo not given) | 73 to 75
CC(C)(C(=O)OCC(=O)c1ccccc1)n1c(=O)[nH]c2cc(F)c(F)cc2c1=O | 174 to 176
CN(C)CCCCCCNC(=O)c1ccc(-c2cnc3c(c2)N(Cc2ccccc2)C(=O)CN3)cc1 | > 200
CC(Oc1ccc(F)cc1)c1ccnn2cnnc12 (stereo not given) | 103 to 104
COc1ccc(-c2c[nH]c(=O)nc2C)cc1 | 210
